{
  "source": "the NIST ThermoML archive (doi:10.1021/je800757j)",
  "details": "Liquid",
  "note": "± gives the expanded uncertainty stated by the source.",
  "data": [
    {"compound": "CCCC", "note": "[butane]", "values": [
      {"measurement": "vapor or sublimation pressure", "setting": "353.15 K", "value": "1039 ± 27", "unit": "kPa"},
      {"measurement": "vapor or sublimation pressure", "setting": "373.15 K", "value": "1586 ± 39", "unit": "kPa"},
      {"measurement": "vapor or sublimation pressure", "setting": "393.15 K", "value": "2265 ± 56", "unit": "kPa"},
      {"measurement": "vapor or sublimation pressure", "setting": "413.15 K", "value": "3156 ± 78", "unit": "kPa"}
    ]},
    {"compound": "CCCCCCC", "note": "[heptane]", "values": [
      {"measurement": "vapor or sublimation pressure", "setting": "433.15 K", "value": "477 ± 18", "unit": "kPa"},
      {"measurement": "vapor or sublimation pressure", "setting": "443.15 K", "value": "587 ± 19", "unit": "kPa"},
      {"measurement": "vapor or sublimation pressure", "setting": "453.15 K", "value": "703 ± 21", "unit": "kPa"}
    ]},
    {"compound": "CCCCCC", "note": "[hexane]", "values": [
      {"measurement": "vapor or sublimation pressure", "setting": "393.15 K", "value": "410 ± 17", "unit": "kPa"},
      {"measurement": "vapor or sublimation pressure", "setting": "413.15 K", "value": "633 ± 20", "unit": "kPa"},
      {"measurement": "vapor or sublimation pressure", "setting": "433.15 K", "value": "918 ± 25", "unit": "kPa"},
      {"measurement": "vapor or sublimation pressure", "setting": "453.15 K", "value": "1301 ± 33", "unit": "kPa"}
    ]},
    {"compound": "CCCCC", "note": "[pentane]", "values": [
      {"measurement": "vapor or sublimation pressure", "setting": "373.15 K", "value": "600 ± 20", "unit": "kPa"},
      {"measurement": "vapor or sublimation pressure", "setting": "423.15 K", "value": "1620 ± 40", "unit": "kPa"}
    ]}
  ]
}
